From PubChem BioAssay (NCI)
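Assay format: 96-well plates, 48-hour exposure. TGI: concentration producing complete growth inhibition.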

Experiments:
Assay in all cases: DTP human tumour cell line panel, 48 h
EKVX NSCLC = test system: EKVX NSCLC
SF-268 CNS = test system: SF-268 CNS
NCI-H226 lung = test system: NCI-H226 lung
SN12C renal = test system: SN12C renal
A498 renal = test system: A498 renal
MOLT-4 leukemia = test system: MOLT-4 leukemia
SF-539 CNS = test system: SF-539 CNS
OVCAR-8 ovarian = test system: OVCAR-8 ovarian
UACC-62 melanoma = test system: UACC-62 melanoma
M14 melanoma = test system: M14 melanoma
MCF7 breast = test system: MCF7 breast
TK-10 renal = test system: TK-10 renal
SK-MEL-28 melanoma = test system: SK-MEL-28 melanoma

| Compound | TGI (EKVX NSCLC) | TGI (SF-268 CNS) | TGI (NCI-H226 lung) | TGI (SN12C renal) | TGI (A498 renal) | TGI (MOLT-4 leukemia) | TGI (SF-539 CNS) | TGI (OVCAR-8 ovarian) | TGI (UACC-62 melanoma) | TGI (M14 melanoma) | TGI (MCF7 breast) | TGI (TK-10 renal) | TGI (SK-MEL-28 melanoma) |
| --- | --- | --- | --- | --- | --- | --- | --- | --- | --- | --- | --- | --- | --- |
| CCOC(=O)c1sc2c(c1OC(=O)c1ccco1)c(=O)n(-c1ccccc1)c(=S)n2-c1ccccc1 | 55.4 µM | > 100 µM | 87.2 µM | 84.4 µM | 60.4 µM | 49.3 µM | 97.9 µM | 70.8 µM | 84.3 µM | > 100 µM | > 100 µM | > 100 µM | > 100 µM |
| O=C(NC1C(=O)NC(CCc2ccccc2)NC1=O)OCc1ccccc1 (stereo unspecified) | > 100 µM | > 100 µM | > 100 µM | > 100 µM | > 100 µM | > 100 µM | > 100 µM | > 100 µM | > 100 µM | > 100 µM | > 100 µM | > 100 µM | > 100 µM |
| CCCCCCCCCCCC(=O)OCC(O)CO (stereo unspecified) | > 100 µM | > 100 µM | > 100 µM | > 100 µM | > 100 µM | > 100 µM | > 100 µM | > 100 µM | > 100 µM | > 100 µM | > 100 µM | > 100 µM | > 100 µM |
| CCCCCCCCCCCCCCCCNc1nc(=O)n(C2CC(O)C(COP(=O)(O)OC3CC(n4cc(F)c(=O)[nH]c4=O)OC3CO)O2)cc1F (stereo unspecified) | 99.3 µM | > 34.2 µM | > 100 µM | > 100 µM | > 89.6 µM | 17.9 µM | 0.956 µM | 44.2 µM | 17.3 µM | 16.5 µM | 97.1 µM | > 100 µM | > 68.7 µM |
| Cc1cc(NS(=O)(=O)c2ccc(NC(=O)c3ccc4nc5ccccc5c(Nc5ccc(S(N)(=O)=O)cc5)c4c3)cc2)no1 | 63 µM | > 100 µM | > 100 µM | 81.5 µM | > 100 µM | 61.8 µM | 80.9 µM | 66 µM | 67.7 µM | > 100 µM | 37.1 µM | 82.9 µM | 50.7 µM |
| CCOC1OC(CO[Si](C)(C)C(C)(C)C)C(O)CC1n1ccc(=O)[nH]c1=O (stereo unspecified) | > 100 µM | > 100 µM | > 100 µM | > 100 µM | > 100 µM | 69.1 µM | > 100 µM | > 100 µM | > 100 µM | > 100 µM | 88.7 µM | > 100 µM | > 100 µM |
| c1ccc2c(c1)n1c(N3CCCC3)[n+]3ccccc3c1c1c3cccc[n+]3c(N3CCCC3)n21 | > 100 µM | 45.2 µM | > 100 µM | > 100 µM | > 100 µM | > 100 µM | > 100 µM | 93.3 µM | > 100 µM | > 100 µM | > 100 µM | > 100 µM | > 100 µM |
| CCOP(=O)(OCC)/C(C#N)=C/c1cccn1C | > 100 µM | > 100 µM | > 100 µM | > 100 µM | > 100 µM | > 100 µM | > 100 µM | > 100 µM | > 100 µM | > 100 µM | > 100 µM | > 100 µM | > 100 µM |
| CC(C)CC1C(=O)OC(C)(C)OC1=O | > 100 µM | > 100 µM | > 100 µM | > 100 µM | > 100 µM | > 100 µM | > 100 µM | > 100 µM | > 100 µM | > 100 µM | > 100 µM | > 100 µM | > 100 µM |
| COC(=O)/C=C1/OC(c2ccccc2)=C(Br)C1=O | > 100 µM | > 100 µM | > 100 µM | 89.2 µM | > 100 µM | > 100 µM | > 100 µM | > 100 µM | > 100 µM | > 100 µM | > 100 µM | > 100 µM | > 100 µM |
| O=C1NCC2(CCN(CC3COc4ccccc4O3)CC2)N1c1ccccc1 (stereo unspecified) | > 100 µM | > 100 µM | > 100 µM | > 100 µM | > 100 µM | > 100 µM | > 100 µM | > 100 µM | > 100 µM | > 100 µM | > 100 µM | > 100 µM | > 100 µM |
| CCc1n[nH]c(=O)n1N | > 100 µM | > 100 µM | > 100 µM | > 100 µM | > 100 µM | > 100 µM | > 100 µM | > 100 µM | > 100 µM | > 100 µM | > 100 µM | > 100 µM | > 100 µM |
| COc1ccc(/C=N/n2c(Cc3ccccc3)n[nH]c2=O)c(OC)c1 | 99.4 µM | 47 µM | > 80.9 µM | > 100 µM | > 66 µM | > 100 µM | > 100 µM | > 59.6 µM | > 100 µM | > 100 µM | > 100 µM | 84.1 µM | > 100 µM |
| C=C(Cl)C(Cl)(CBr)CCCC(C)C (stereo unspecified) | 35 µM | 40.1 µM | > 100 µM | > 100 µM | 34 µM | > 100 µM | 22.7 µM | 47.6 µM | > 100 µM | > 100 µM | 28.5 µM | 32.4 µM | 37.3 µM |
| N#Cc1ccccc1NC(=O)C(O)C(O)C(O)C(O)C=O (stereo unspecified) | > 100 µM | > 100 µM | > 100 µM | > 100 µM | > 100 µM | > 100 µM | > 100 µM | > 100 µM | > 100 µM | > 100 µM | > 100 µM | > 100 µM | > 100 µM |
| NC(N)=N/N=C/c1c(Cl)nc2n1CCS2 | > 100 µM | > 100 µM | > 100 µM | > 100 µM | > 100 µM | > 100 µM | > 100 µM | > 100 µM | > 100 µM | > 100 µM | > 100 µM | > 100 µM | > 100 µM |
| CC(=O)/C=C1/C(=O)C(CC(C)C)=C1CC(C)C | > 100 µM | > 100 µM | > 100 µM | > 100 µM | > 100 µM | > 100 µM | > 100 µM | > 100 µM | > 100 µM | > 100 µM | > 100 µM | > 100 µM | > 100 µM |
